Data reported in ChEMBL document CHEMBL4392848, “Proline-based hydroxamates targeting the zinc-dependent deacetylase LpxC: Synthesis, antibacterial properties, and docking studies” (Bioorg Med Chem, 2019).
Values after ≈ are worked out from the molar mass of the structure shown.

Experiments:
[1] = test system: Proteus vulgaris; experiment: Antibacterial activity against Proteus vulgaris assessed as diameter of inhibition zone measured after 24 hrs by agar disc diffusion method; assay type: functional
[2] = test system: Escherichia coli; experiment: Antibacterial activity against Escherichia coli D22 assessed as diameter of inhibition zone measured after overnight incubation by agar disc diffusion method; assay type: functional
[3] = test system: Klebsiella oxytoca; experiment: Antibacterial activity against Klebsiella oxytoca assessed as diameter of inhibition zone measured after 24 hrs by agar disc diffusion method; assay type: functional
[4] = Inhibition of Escherichia coli LpxC C63A mutant using UDP-3-O-[(R)-3-hydroxymyristoyl]-N-acetylglucosamine as substrate measured after 30 mins by fluorescence based microplate assay
[5] = test system: Citrobacter freundii; experiment: Antibacterial activity against Citrobacter freundii assessed as diameter of inhibition zone measured after 24 hrs by agar disc diffusion method; assay type: functional
[6] = test system: Escherichia coli; experiment: Antibacterial activity against Escherichia coli D22 measured after 20 hrs by microdilution method; assay type: functional; conditions: D22, 20 h
[7] = test system: Klebsiella pneumoniae; experiment: Antibacterial activity against Klebsiella pneumoniae assessed as diameter of inhibition zone measured after 24 hrs by agar disc diffusion method; assay type: functional
[8] = test system: Enterobacter cloacae; experiment: Antibacterial activity against Enterobacter cloacae assessed as diameter of inhibition zone measured after 24 hrs by agar disc diffusion method; assay type: functional
[9] = test system: Pseudomonas aeruginosa; experiment: Antibacterial activity against Pseudomonas aeruginosa assessed as diameter of inhibition zone measured after 24 hrs by agar disc diffusion method; assay type: functional
[10] = test system: Proteus mirabilis; experiment: Antibacterial activity against Proteus mirabilis assessed as diameter of inhibition zone measured after 24 hrs by agar disc diffusion method; assay type: functional
[11] = test system: Escherichia coli; experiment: Antibacterial activity against Escherichia coli BL21(DE3) assessed as diameter of inhibition zone measured after overnight incubation by agar disc diffusion method; assay type: functional
[12] = test system: Escherichia coli; experiment: Antibacterial activity against Escherichia coli BL21(DE3) measured after 20 hrs by microdilution method; assay type: functional
[13] = test system: Klebsiella aerogenes; experiment: Antibacterial activity against Enterobacter aerogenes assessed as diameter of inhibition zone measured after 24 hrs by agar disc diffusion method; assay type: functional

Structure (SMILES)	IC50 [4] [µM]	MIC [6] [µM]	MIC [12] [µM]	diameter of the inhibition zone (DIZ) [1] [mm]	diameter of the inhibition zone (DIZ) [2] [mm]	diameter of the inhibition zone (DIZ) [3] [mm]	Ki [4] [µM]	diameter of the inhibition zone (DIZ) [5] [mm]	diameter of the inhibition zone (DIZ) [7] [mm]	diameter of the inhibition zone (DIZ) [8] [mm]	diameter of the inhibition zone (DIZ) [9] [mm]	diameter of the inhibition zone (DIZ) [10] [mm]	diameter of the inhibition zone (DIZ) [11] [mm]	diameter of the inhibition zone (DIZ) [13] [mm]
O=C(NO)[C@@H]1CCCN1C(=O)c1ccc(C#Cc2ccccc2)cc1	> 200	128 (≈ 42.8 µg/mL)	> 256	7	12	8	> 27.6	8	<6	8	<6	<6	<6	<6
N[C@H]1C[C@@H](C(=O)NO)N(C(=O)c2ccc(C#Cc3ccc(CN4CCOCC4)cc3)cc2)C1	–	64 (≈ 28.7 µg/mL)	256 (≈ 115 µg/mL)	<6	20	13	–	8	9	<6	10	7	7.8	11
CN(C)c1ccc(C#Cc2ccc(C(=O)N3C[C@H](O)C[C@H]3C(=O)NO)cc2)cc1	–	32 (≈ 12.6 µg/mL)	256 (≈ 101 µg/mL)	<6	14	8	–	8	7	<6	<6	8	<6	10
O=C(NO)[C@@H]1C[C@H](O)CN1C(=O)c1ccc(C#Cc2ccc(CN3CCCC3)cc2)cc1	> 200	64 (≈ 27.7 µg/mL)	> 256	<6	14.3	<6	> 27.6	<6	<6	<6	<6	<6	<6	<6
Nc1ccc(C#Cc2ccc(C(=O)N3C[C@H](O)C[C@H]3C(=O)NO)cc2)cc1	–	128 (≈ 46.8 µg/mL)	> 256	<6	12.3	7	–	<6	<6	<6	<6	7	<6	<6
O=C(NO)[C@@H]1CCCN1C(=O)c1ccc(C#Cc2ccc(CN3CCSCC3)cc2)cc1	45.2	8 (≈ 3.6 µg/mL)	128 (≈ 57.5 µg/mL)	10	18	11	6.2	14	18	14	<6	12	12.7	14
O=C(NO)[C@@H]1C[C@H](O)CN1C(=O)c1ccc(C#Cc2ccc(CN3CCSCC3)cc2)cc1	32.8	8 (≈ 3.72 µg/mL)	128 (≈ 59.6 µg/mL)	9	21.3	11	4.5	14	15	14	<6	10	13	18
COc1ccc(C#Cc2ccc(C(=O)N3C[C@H](O)C[C@H]3C(=O)NO)cc2)cc1	–	64 (≈ 24.3 µg/mL)	> 256	8	9.7	7	–	7	<6	<6	<6	7	<6	<6

More lines, in order of falling MIC [6], values ahead:

IC50 [4] [µM]	MIC [6] [µM]	MIC [12] [µM]	Structure (SMILES)	diameter of the inhibition zone (DIZ) [1] [mm]	diameter of the inhibition zone (DIZ) [2] [mm]	diameter of the inhibition zone (DIZ) [3] [mm]	Ki [4] [µM]	diameter of the inhibition zone (DIZ) [5] [mm]	diameter of the inhibition zone (DIZ) [7] [mm]	diameter of the inhibition zone (DIZ) [8] [mm]	diameter of the inhibition zone (DIZ) [9] [mm]	diameter of the inhibition zone (DIZ) [10] [mm]	diameter of the inhibition zone (DIZ) [11] [mm]	diameter of the inhibition zone (DIZ) [13] [mm]
> 200	128 (≈ 55.2 µg/mL)	> 256	O=C(NO)[C@@H]1CCCN1C(=O)c1ccc(C#Cc2ccc(CN3CCCCC3)cc2)cc1	11	18.7	9	> 27.6	8	13	10	<6	10	7	12
–	128 (≈ 44.7 µg/mL)	> 256	Nc1ccc(C#Cc2ccc(C(=O)N3CCC[C@H]3C(=O)NO)cc2)cc1	<6	14.3	7	–	7	<6	<6	<6	<6	7.5	<6
> 200	64 (≈ 22.4 µg/mL)	> 256	O=C(NO)[C@@H]1C[C@H](O)CN1C(=O)c1ccc(C#Cc2ccccc2)cc1	7	14.3	7	> 27.6	7	<6	<6	<6	7	<6	<6
17.1	64 (≈ 30.8 µg/mL)	> 256	O=C(NO)[C@@H]1CCCN1C(=O)c1ccc(C#Cc2ccc(CN3CCS(=O)(=O)CC3)cc2)cc1	10	17	<6	2.4	<6	11	10	<6	9	10.7	8
54.5	32 (≈ 14.3 µg/mL)	> 256	O=C(NO)[C@@H]1C[C@H](O)CN1C(=O)c1ccc(C#Cc2ccc(CN3CCCCC3)cc2)cc1	13	19.2	9	7.5	9	9	<6	<6	11	<6	10
44	4 (≈ 1.85 µg/mL)	64 (≈ 29.7 µg/mL)	O=C(NO)[C@@H]1C[C@H](O)CN1C(=O)c1ccc(C#Cc2ccc(CN3CCC(O)CC3)cc2)cc1	<6	23.7	<6	6.1	<6	<6	<6	<6	11	15.7	9
8.1	1 (≈ 0.436 µg/mL)	64 (≈ 27.9 µg/mL)	O=C(NO)[C@@H]1CCCN1Cc1ccc(C#Cc2ccc(CN3CCSCC3)cc2)cc1	<6	17.7	11	1.1	13	14	14	<6	8	10.7	13
